Reference: publication PMC6863598, “Binding of Monovalent and Bivalent Ligands by Transthyretin Causes Different Short- and Long-Distance Conformational Changes” (Journal of Medicinal Chemistry, 2019)

Columns and labels:
TTR HBP = biological target: T1, TTR HBP (Homo sapiens, UniProt P02766); assay: NMR observation of ligand binding to the recombinant TTR halogen binding pocket; conditions: DSS added for reference purposes, Figure S4
T1 construct: hexahistidine (TEV-cleavable) (cleaved yes); made in house; host or cells: E. coli BL21 Star (DE3), peTM11 plasmid
Description: NMR spectra were acquired at 310 K with a Bruker AVANCE 700 and 800 MHz NMR spectrometer on a U-^2H, ^13C, ^15N-labeled recombinant TTR samples at concentrations of 50–90 μM in PBS buffer at pH 7.0 and 7.4 in a mixture H2O/D2O 90/10%.
The addition of 4,4-dimethyl-4-silapentane-1-sulfonic acid (DSS) for reference purposes led to the observation that DSS binds to the TTR HBP (see Figure S4).

TTR [1] = conditions: simultaneous occupancy of the two binding sites; cited from earlier work
TTR [2] = system: TTR; design: method as in PMID 28298647; conditions: cited from earlier work
[3] = biological target: TTR (human wild type TTR isolated from serum) (Homo sapiens, UniProt P02766); assay: Surface plasmon resonance (Biacore T200) of tafamidis binding to immobilised biotinylated TTR; conditions: for k2 (off-rate, first binding site) / k4 (off-rate, second binding site): dissociation data fitted to a double exponential
Description: Data were fitted to the model described by Scheme 1. The measured fractional response is then given by {[AB + (2ABB)]/Ai} where Ai is the notional concentration of TTR on the surface. Rate parameters were determined from the global fitting of the association data to the binding equilibria as defined by Scheme 1. […]
Surface Plasm on Resonance. Human wild type TTR isolated from serum (Scipac) was biotinylated according to the method of Alhamadsheh et al . 3 using EZ -link sulfo NHS -LC biotin (Thermoscientific) and immobilised in […]
phosphate buffered saline (PBS), 0.05% Tween20 to achieve 3000-4000 response units of biotinylated TTR bound to the SA-chip surface following the manufacturer’s instructions. To block unoccupied sites, biocytin (50 µM) was flowed across the chip (at a flow rate of 50 µl/min, for 1 min). Finally, the chip was washed with Hepes Buffer Saline, pH 7. 4 (+ 0. 05 % Tween20) running buffer until the SPR signal reached a stable background level.
For all procedures, the running buffer was used at a flow rate of […]. The immobilised TTR surface was […]
30 µl/min) and then running buffer alone to monitor the dissociation phase. Between injections sufficient time

[4] = SPR, ± standard deviation, listed as Tafamidis

C[Si](C)(C)CCCS(=O)(=O)O [DSS, 4,4-dimethyl-4-silapentane-1-sulfonic acid]
binding to the TTR HBP (TTR HBP): binds

O=C(O)c1ccccc1Nc1cc(Cl)c(OCCCCCCCOc2c(Cl)cc(Nc3ccccc3C(=O)O)cc2Cl)c(Cl)c1 [mds84]
nature of binding by TTR (TTR [1]): pseudo-irreversible | protection against the proteolytic cleavage of the peptide bond 48–49 (TTR [2]): highest protection

O=C(O)c1ccc2nc(-c3cc(Cl)cc(Cl)c3)oc2c1 [tafamidis]
k3 (on-rate, second binding site) ([3]; SPR global fit, Scheme 1, ± standard deviation): (3.5 ± 1.0) × 10^6 M^–1 s^–1 | k1 (on-rate, first binding site) ([3]; SPR global fit, Scheme 1, ± standard deviation, three independent experiments): (4.5 ± 2.2) × 10^6 M^–1 s^–1 | difference in the observed affinities at the two sites ([3]; SPR, Kd2 vs Kd1): 7 fold | k2 (off-rate, first binding site) ([3]; SPR, ± standard deviation): 0.008 s^–1 | k4 (off-rate, second binding site) ([3]; SPR, ± standard deviation): 0.06 s^–1 | k2 (off-rate, first binding site) [3, 4]: (0.008 ± 0.001) s^–1 | k4 (off-rate, second binding site) [3, 4]: (0.060 ± 0.006) s^–1 | k2 (off-rate measured by SPR) ([3]; first site, Figure 7 legend): 0.008 Hz | k4 (off-rate measured by SPR) ([3]; second site, Figure 7 legend): 0.06 Hz
